Laboratory results taken from US4216221A, “1,3-Disubstituted (2-thio)ureas” (U C B, Societe Anonyme, priority 1977, dated 1980).
Where two headings read alike, the source gives them in different places.

Assays:
[1] = Toxicity by intraperitoneal administration (Irwin's test); assay type: in vivo; settings: for Dose mg/kg (dose which brings about the death of one animal out of eight in Irwin's test): mouse
Source text: The compounds tested have a remarkably low toxicity.
*Dose which brings about the death of one animal out of eight in Irwin's
test (S. IRWIN, Gordon Research Conference on Medicinal Chemistry, Colby
Junior College, New London, 1959).

[2] = Protection against aggressions of the hypoxic type (mortality induced by oxydipentonium chloride); assay type: in vivo, mice; settings: Mus musculus, ip, 1 h, mice, intraperitoneal, one hour before the curarizer, 2/10 (28), read-out: Proportion of survivors, Animals treated; for responders at 100 µM, 100 µmol/kg: 0.1 mM/kg, control animals 3/20 (1), 1/10 (2, 18, 26), 0/10 (14, 32); for responders at 320 µM, 320 µmol/kg: 0.32 mM/kg, control animals 1/10 (18), 0/10 (32, piracetam)
Description: Protection against aggressions of the hypoxic type was shown by a reduction of mortality induced by a curarizer, the action time of which is short, namely oxydipentonium chloride (Brevatonal). At the doses used, this curarizer brings about respiratory depression which, in turn, gives rise to a hypoxi-hypercapnic syndrome.
A compound capable of protecting the brain during this short period of hypoxia ensures survival. The compounds are administered to groups of 10 mice one hour before the injection of the curarizer. At the same time, a control group of 10 mice received physiological salt solution before the curarizer. This test has also been developed in our laboratories (see S. LEVIS et al., Arch.Int.Pharmacodyn.Therap.93, (1953,no. 1), 46-54).

[3] = active avoidance test (memory retention; paw withdrawal reaction threshold); assay type: in vivo, rat; settings: sc, rat, subcutaneous, tested 24 hours later
Source text: The pressure at which the withdrawal reaction takes place is called the reaction threshold. This threshold is expressed by the figure read on a scale graduated in cm of the apparatus used (Analgesy-meter Ugo Basile, Milan) and thus corresponds to the minimum pressure which brings about withdrawal when applied to the animal's paw.

[4] = read-out: Active dose mM/kg (minimum dose lowering the stimulus below 11 graduations; mM = millimole)
[5] = read-out: Active dose mg/kg (minimum dose lowering the stimulus below 11 graduations)

Compound | Dose mM/kg - mouse (dose which brings about the death of one animal out of eight in Irwin's test) [1] [mM/kg] | Dose mg/kg (dose which brings about the death of one animal out of eight in Irwin's test) [1] [mg/kg] | responders at 100 µM, 100 µmol/kg [2] [%] | minimal effective dose [3, 4] [µmol/kg] | minimal effective dose [3, 5] [mg/kg] | responders at 320 µM, 320 µmol/kg [2] [%]
O=C(NCCCN1CCCC1=O)NCN1CCCC1=O [Compound No. 2, 1-[(2-oxo-pyrrolidino)methyl]-3-[3-(2-oxo-pyrrolidino)propyl]-urea] | > 3 | > 846 | 60 | – | – | –
O=C(NCN1CCCCC1=O)NCN1CCCCC1=O [Compound No. 3, 1,3-bis[(2-oxo-piperidino)methyl]-urea] | – | – | – | 0.2 | 0.056 | –
O=C(NCN1CCCCCCC1=O)NCN1CCCCCCC1=O [Compound No. 5, 1,3bis[(hexahydro-2-oxo-1(2H)-azocinyl)methyl]-urea] | 3 | 1004 | – | 1 | 0.338 | –
O=C(NCN1CCCCCCCC1=O)NCN1CCCCCCCC1=O [Compound No. 6, 1,3-bis[(octahydro-2-oxo-1H-azonin-1-yl)methyl]-urea] | > 3 | 1099.5 | – | 5 | 1.83 | –
O=C(NCN1C(=O)CCC1c1ccccc1)NCN1C(=O)CCC1c1ccccc1 (centres unmarked) [Compound No. 9, 1,3-bis[(2-oxo-5-phenyl-pyrrolidino)methyl]-urea] | 1 | 406 | – | – | – | –
CCC(NC(=O)NC(CC)N1CCCC1=O)N1CCCC1=O (centres unmarked) [Compound No. 10, 1,3-bis[1-(2-oxo-pyrrolidino)propyl]-urea] | > 3 | > 930 | – | – | – | –
O=C(NCN1CCCCCCCC1=O)NCN1CCCC1=O [Compound No. 29, 1-[(octahydro-2-oxo-1H-azonin-1-yl)methyl]-3-[(2-oxo-pyrrolidino)methyl]-urea] | 2 | 620 | – | – | – | –
O=C(NCN1CC(c2ccccc2)CC1=O)NCN1CC(c2ccccc2)CC1=O (centres unmarked) [compound 12, 1,3-bis[(2-oxo-4-phenyl-pyrrolidino)methyl]-urea] | > 3 | 1215 | – | – | – | –
CCC1(c2ccccc2)CCN(CNC(=O)NCN2CCC(CC)(c3ccccc3)C2=O)C1=O (centres unmarked) [compound 13, 1,3-bis[(3-ethyl-2-oxo-3-phenyl-pyrrolidino)methyl]-urea] | > 3 | 1387.5 | – | – | – | –
C=CCC1(c2ccccc2)CCN(CNC(=O)NCN2CCC(CC=C)(c3ccccc3)C2=O)C1=O (centres unmarked) [compound 15, 1,3-bis[(3-allyl-2-oxo-3-phenyl-pyrrolidino)methyl]-urea] | > 3 | 1459.5 | – | 1 | 0.486 | –
O=C(NCN1CC(c2ccc(Cl)cc2)CCC1=O)NCN1CC(c2ccc(Cl)cc2)CCC1=O (centres unmarked) [compound 16, 1,3-bis[(5-p-chlorophenyl-2-oxo-piperidino)methyl]-urea] | > 3 | 1510.2 | – | – | – | –
CC1CC2(CCCCC2)C(=O)N1CNC(=O)NCN1C(=O)C2(CCCCC2)CC1C (centres unmarked) [compound 17, 1,3-bis[(3-methyl-1-oxo-2-azaspiro[4.5]dec-2-yl)methyl]-urea] | 3 | 1255.8 | – | – | – | –
CC1CC(C)(C)N(CNC(=O)NCN2C(=O)C(C)CC2(C)C)C1=O (centres unmarked) [compound 18, 1,3-bis[(3,5,5-trimethyl-2-oxo-pyrrolidino)methyl]-urea] | 2 | 676.8 | 20 | – | – | 60
O=C(NC(c1ccccc1)N1CCCC1=O)NC(c1ccccc1)N1CCCC1=O (stereo not drawn) [compound 19, 1,3-bis[alpha-(2-oxo-pyrrolidino)-benzyl]-urea] | > 3 | > 1219 | – | – | – | –
CC(CNC(=O)NCC(C)N1CCCC1=O)N1CCCC1=O (centres unmarked) [compound 21, 1,3-bis[2-(2-oxo-pyrrolidino)propyl]-urea] | > 3 | > 930 | – | 0.01 | 0.0031 | –
O=C1CCCN1CNC(=S)NCN1CCCC1=O [compound 25, 1,3-bis[(2-oxo-pyrrolidino)methyl]-2-thiourea] | > 3 | > 804 | – | 1 | 0.268 | –
CCCCC1CCN(CNC(=S)NCN2CCC(CCCC)C2=O)C1=O (centres unmarked) [compound 26, 1,3-bis[(3-n-butyl-2-oxo-pyrrolidino)methyl]-2-thiourea] | > 2 | > 765.2 | 70 | – | – | –
CCCCC1CCN(CNC(=S)NCN2CCC(CCCC)C2=O)C1=O (centres unmarked) [compound 27, 1,3-bis[(3-n-butyl-2-oxo-pyrrolidino)methyl]-2-thiourea] | – | – | – | 0.01 | 0.0038 | –
O=C1CCCCCN1CNC(=S)NCN1CCCC1=O [compound 28, 1-[(hexahydro-2-oxo-1H-azepin-1-yl)methyl]-3-[(2-oxo-pyrrolidino)methyl]-2-thiourea] | 3 | 894 | 20 | – | – | 70
CCCCC1CCN(CNC(=O)NCN2CCC(CCCC)C2=O)C1=O (centres unmarked) [compound 30, 1,3-bis[(3-n-butyl-2-oxo-pyrrolidino)methyl]-urea] | > 3 | > 10009.5 | – | – | – | –
CC1CC2(CCCCC2)C(=O)N1CNC(=O)NCN1CCCC1=O (centres unmarked) [compound 31, 1-[(3-methyl-1-oxo-azaspiro[4.5]dec-2-yl)methyl]-3-[(2-oxo-pyrrolidino)-methyl]-urea] | 2 | 672.8 | – | – | – | –
O=C(NCN1CCCCCCC1=O)NCN1CCCC1=O [compound 33, 1-[(hexahydro-2-oxo-1(2H)-azocinyl)methyl]-3-[(2-oxo-pyrrolidino)methyl]-urea] | > 3 | > 888 | – | 5 | 1.48 | –
CC1(C)CCC(=O)N1CNC(=O)NCN1C(=O)CCC1(C)C [compound 35, 1,3bis[(5,5-dimethyl-2-oxo-pyrrolidine)methyl]-urea] | > 3 | > 930 | – | 0.02 | 0.0062 | –
O=C1CCCCCN1CNC(=S)NCN1CCCCCC1=O [compound 36, 1,3-bis[(hexahydro-2-oxo-1H-azepin-1-yl)methyl]-2-thiourea] | – | – | – | 0.2 | 0.065 | –
